Results reported in patent US20180220646A1, “AMS-Free Adjuvants for Water Conditioning and Agricultural Formulations” (RHODIA OPERATIONS, priority 2017, published 2018).

Assays:
Experiment in all cases: Field plot weed control study, % control
Type in all cases: in vivo
Conditions in all cases: adjuvant use rate 1.0% wt/wt with glyphosate baseline
Amaranthus sp. (LIUSS) = system: Amaranthus sp. (LIUSS)
Method: (§1) The efficacy evaluation was conducted by a field plot study with selected weeds. They are Linum sp. (AMSS), Amaranthus sp. (LIUSS), Helianthus sp. (HELSS), and Zea mays (ZEAMX). The field plot size is 400 square feet (10×40 ft), with three replications arranged in a randomized complete block design. Soil description: 15.3% sand, 53.9% silt, and 30.8% clay; Organic material content: 6.2%; pH: 7.5.
(§2) Product application was made using a backpack spray device, Blackout. Operation pressure: 40 psi. Nozzle: TT 11001; Spray volute: 8.5 gallon/acre.
(§3) Environmental condition during application: Air temperature—87 degree F.; Relative humidity—39%; Wind—NE, 5 mph; Soil temperature—71 degree F.; Cloud cover—50%.
(§4) Weeds were evaluated for percent control at 14 days and 28 days following application.
(§5) Sliding rating scale used: 0 indicating no control, up to 100 indicating complete control of weed species as compared to the untreated check.

Helianthus sp. (HELSS) = system: Helianthus sp. (HELSS)
Method: as §1, §2, §3, §4, §5

Linum sp. (AMSS) = system: Linum sp. (AMSS)
Method: as §1, §2, §3, §4, §5

Zea mays (ZEAMX) = system: Zea mays (ZEAMX)
Method: as §1, §2, §3, §4, §5

Compound	% Control at 14 days LIUSS (Amaranthus sp. (LIUSS))	% Control at 28 days LIUSS (Amaranthus sp. (LIUSS))	% Control at 14 days HELSS (Helianthus sp. (HELSS))	% Control at 28 days HELSS (Helianthus sp. (HELSS))	% Control at 14 days AMSS (Linum sp. (AMSS))	% Control at 28 days AMSS (Linum sp. (AMSS))	% Control at 14 days ZEAMX (Zea mays (ZEAMX))	% Control at 28 days ZEAMX (Zea mays (ZEAMX))
Choline Citrate	71.7%	86.7%	89.3%	95%	61.7%	63.3%	68.3%	90%
Choline salt of Sulfuric Acid	40%	43.3%	88.3%	95%	70%	70%	55%	83.3%
Choline etidronic acid	76%	80%	91.7%	84%	70%	70%	65%	66.7%
C[N+](C)(C)C.C[N+](C)(C)C.O=S(=O)([O-])[O-] [Tetramethylamine Sulfate]	46.7%	46.7%	86.7%	85%	51.7%	58.3%	56.7%	85%
